Test system: SARS-CoV-2 spike protein binding to ACE2

## FLDKFNHNFKDLF [13AApi]
  Inhibition of interaction between SARS-CoV-2 spike and immobilized ACE2: Greater than 40%

From publication PMC8319882 (Drugs in R&D, 2021)
